Results taken from patent publication US20110217265A1, “Screening for Inhibitors of HCV Amphipathic Helix (AH) Function” (priority 2008, published 2011).

Columns and labels:
[1] = tested on: Huh7.5 cells; experiment: Alamar Blue cell viability assay; type: cell-based, human
Experimental: Antiviral Assays of Compounds. Subconfluent Huh7.5 cells were trypsinized and collected by centrifugation at 700 g for 5 min. The cells were then washed three times in ice-cold RNasefree PBS buffer (BioWhittaker) and resuspended at 1.5×10^7 cells·ml^−1 in PBS buffer. Wild-type FL-J6/JFH-5′C19Rluc2AUbi and Bart79I-luc RNAs for electroporation were generated by in vitro transcription of XbaI (FL-J6/JFH-5′C19Rluc2AUbi) and ScaI (Bart791-luc)-linearized DNA templates using the T7 MEGAscript kit (Ambion), followed by phenol-chloroform purification and DEPC water suspension, 5 μg of RNA were mixed with 400 μl of washed Huh7.5 cells in a 2-mm-gap cuvette (BTX) and immediately pulsed (0.82 kV (FL-J6/JFH-5′C19Rluc2AUbi) and 0.68 kV (Bart79I-luc), five […] pulses) with a BTX-830 electroporator. After 10 min recovery at 25° C., pulsed cells were diluted into 20 ml of pre-warmed growth medium. Cells from several electroporations were pooled to a common stock and seeded in 96-well plates (17,000-20,000 cells per well). After 24 hr, compounds were added to the cells and media changes were performed daily with fresh compounds. After 72 hr of treatment, cells were incubated for 2 hr at 37° C. in the presence of 10% Alamar Blue reagent (TREK Diagnostic Systems) to assess for cytotoxicity. […] The signal was normalized relative to untreated samples. Viral RNA replication was determined using Renilla (FL-J6/JFH-5′C19Rluc2AUbi) or firefly (Bart791-luc) luciferase assays, according to the manufacturer's (Promega) directions. The same samples subjected to the viability assay described below were analyzed in this assay. According to the manufacturer protocol, cells were washed with PBS buffer and shaken at room temperature for 15 min in 20 μl of lysis buffer. Reporter assays were performed directly in the wells of the culture plates by injecting 100 μl of the assay substrate into each well. Luminescence was measured over 10 seconds with a 2-second delay using a Berthold LB 96 V luminometer. Signal was normalized relative to untreated samples or samples grown in the presence of the corresponding concentration of DMSO. Experiments were repeated three times, each time with 4 replicates.

[2] = tested on: 2a HCV RNA replicon; experiment: 2a HCV RNA replicon assay (FL-J6/JFH-5'C19Rluc2AUbi, luciferase); type: cell-based, Hepatitis C Virus genotype 2a; conditions: Hepatitis C virus, read-out: 2a (%) Percent of virus activity remaining in the presence of the compound
Text: Plasmids. Bart79I, a high-efficiency subgenomic replicon of HCV (28), harbors the neomycin resistance gene (neo) and the HCV nonstructural proteins. The Bart-Luciferase plasmid, Bart79I-luc, was cloned from the Bart791 parent (29) and the pGL3-Basic parent (Promega). In brief, a NotI site was introduced after the 15th amino acid of Core in Bart791 using PCR mutagenesis. The plasmid pcDNA3.1-NS4B, which encodes the Con1 NS4B sequence and was used to study the protein stability of the wild type and mutant NS4Bs, was described previously. To introduce the M2 mutation into the 4BAH2 of plasmids encoding HCV replicons or NS4B, the nucleotide sequence GCG that encodes for alanine at NS4B amino acid position 51 was changed to GAG (encoding for glutamate) and the nucleotide sequence TGG that encodes for tryptophan at amino acid position 55 was changed to GAT (encoding for aspartate) through the use of Quick-ChangeTMXL site-directed mutagenesis kit (Stratagene, La Jolla, Calif.) as described by the manufacturer and confirmed by sequencing. FL-J6/JFH-5′C19Rluc2AUbi, which is a monocistronic, full-length HCV genome that expresses Renilla luciferase (Rluc) and was derived from the previously described infectious genotype 2a HCV genome J6/JFH1.
Antiviral Assays of Compounds. Subconfluent Huh7.5 cells were trypsinized and collected by centrifugation at 700 g for 5 min. The cells were then washed three times in ice-cold RNasefree PBS buffer (BioWhittaker) and resuspended at 1.5×10^7 cells·ml^−1 in PBS buffer. Wild-type FL-J6/JFH-5′C19Rluc2AUbi and Bart79I-luc RNAs for electroporation were generated by in vitro transcription of XbaI (FL-J6/JFH-5′C19Rluc2AUbi) and ScaI (Bart791-luc)-linearized DNA templates using the T7 MEGAscript kit (Ambion), followed by phenol-chloroform purification and DEPC water suspension, 5 μg of RNA were mixed with 400 μl of washed Huh7.5 cells in a 2-mm-gap cuvette (BTX) and immediately pulsed (0.82 kV (FL-J6/JFH-5′C19Rluc2AUbi) and 0.68 kV (Bart79I-luc), five […] pulses) with a BTX-830 electroporator. After 10 min recovery at 25° C., pulsed cells were diluted into 20 ml of pre-warmed growth medium. Cells from several electroporations were pooled to a common stock and seeded in 96-well plates (17,000-20,000 cells per well). After 24 hr, compounds were added to the cells and media changes were performed daily with fresh compounds. After 72 hr of treatment, cells were incubated for 2 hr at 37° C. in the presence of 10% Alamar Blue reagent (TREK Diagnostic Systems) to assess for cytotoxicity. Plates were then scanned and fluorescence was detected by using a FLEXstation II 384 (Molecular Devices). The signal was normalized relative to untreated samples. Viral RNA replication was determined using Renilla (FL-J6/JFH-5′C19Rluc2AUbi) or firefly (Bart791-luc) luciferase assays, according to the manufacturer's (Promega) directions. The same samples subjected to the viability assay described below were analyzed in this assay. According to the manufacturer protocol, cells were washed with PBS buffer and shaken at room temperature for 15 min in 20 μl of lysis buffer. Reporter assays were performed directly in the wells of the culture plates by injecting 100 μl of the assay substrate into each well. Luminescence was measured over 10 seconds with a 2-second delay using a Berthold LB 96 V luminometer. Signal was normalized relative to untreated samples or samples grown in the presence of the corresponding concentration of DMSO. Experiments were repeated three times, each time with 4 replicates.

SMILES | Cell Viability (%), alamar blue ([1]; 5 μM) | Cell Viability (%), alamar blue ([1]; 10 μM) | activity at 5 µM [2] | activity at 10 µM [2]
CC(C)CN(C)c1nc(N)c(C(=O)NCc2ccsc2)nc1Cl.Cl [ID 148, 3-amino-6-chloro-5-(isobutyl(methyl)amino)-N-(thiophen-3-ylmethyl)pyrazine-2-carboxamide hydrochloride] | 99% | 90% | 69% | 53%
CC(C)CN(C)c1nc(N)c(C(=O)NCc2nccs2)nc1Cl.Cl [ID 149, 3-amino-6-chloro-5-(isobutyl(methyl)amino)-N-(thiazol-2-ylmethyl)pyrazine-2-carboxamide hydrochloride] | >100% | >100% | 68% | 50%
CC(C)CN(C)c1nc(N)c(C(=O)NCc2cccs2)nc1Cl [ID 150, 3-amino-6-chloro-5-(isobutyl(methyl)amino)-N-(thiophen-2-ylmethyl)pyrazine-2-carboxamide 2,2,2-trifluoroacetate] | >100% | 77% | 65% | 48%
CC(C)CN(C)c1nc(N)c(C(=O)Nc2ccon2)nc1Cl.Cl [ID 200, 3-amino-6-chloro-5-(isobutyl(methyl)amino)-N-(isoxazol-3-yl)pyrazine-2-carboxamide hydrochloride] | 96% | 96% | 77% | 65%
CC(C)CN(C)c1nc(N)c(C(=O)Nc2ccccn2)nc1Cl.Cl [ID 201, 3-amino-6-chloro-5-(isobutyl(methyl)amino)-N-(pyridin-2-yl)pyrazine-2-carboxamide hydrochloride] | >100% | 92% | 74% | 48%
CC(C)CN(C)c1nc(N)c(C(=O)Nc2ccncc2)nc1Cl.Cl [ID 203, 3-amino-6-chloro-5-(isobutyl(methyl)amino)-N-(pyridin-4-yl)pyrazine-2-carboxamide hydrochloride] | 92% | 90% | 68% | 59%
CC(C)CN(C)c1nc(N)c(C(=O)NCc2ccccn2)nc1Cl.Cl [ID 204, 3-amino-6-chloro-5-(isobutyl(methyl)amino)-N-(pyridin-2-ylmethyl)pyrazine-2-carboxamide hydrochloride] | >100% | 99% | 66% | 60%
CC(C)CN(C)c1nc(N)c(C(=O)Nc2nncs2)nc1Cl.Cl [ID 205, 3-amino-6-chloro-5-(isobutyl(methyl)amino)-N-(1,3,4-thiadiazol-2-yl)pyrazine-2-carboxamide hydrochloride] | 88% | 67% | 42% | 17%
Cc1ccncc1NC(=O)c1nc(Cl)c(N(C)CC(C)C)nc1N.Cl [ID 235, 3-amino-6-chloro-5-(isobutyl(methyl)amino)-N-(4-methylpyridin-3-yl)pyrazine-2-carboxamide hydrochloride] | 84% | 68% | 48% | 22%
Cc1cc(NC(=O)c2nc(Cl)c(N(C)CC(C)C)nc2N)no1.Cl [ID 236, 3-amino-6-chloro-5-(isobutyl(methyl)amino)-N-(5-methylisoxazol-3-yl)pyrazine-2-carboxamide hydrochloride] | 96% | 78% | 92% | 51%
Cc1cc(NC(=O)c2nc(Cl)c(N(C)CC(C)C)nc2N)cnc1Cl [ID 291, 3-amino-6-chloro-N-(6-chloro-5-methylpyridin-3-yl)-5-(isobutyl(methyl)amino)pyrazine-2-carboxamide bis(2,2,2-trifluoroacetate)] | 79% | 53% | 59% | 21%
COc1cc(C)c(NC(=O)c2nc(Cl)c(N(C)CC(C)C)nc2N)cn1 [ID 294, 3-amino-6-chloro-5-(isobutyl(methyl)amino)-N-(6-methoxy-4-methylpyridin-3-yl)pyrazine-2-carboxamide bis(2,2,2-trifluoroacetate)] | 100% | 68% | 58% | 22%
CC(C)CN(C)c1nc(N)c(C(=O)Nc2ccccc2)nc1Cl [ID 295, 3-amino-6-chloro-5-(isobutyl(methyl)amino)-N-phenylpyrazine-2-carboxamide] | >100% | 90% | 65% | 47%
Cc1cncc(NC(=O)c2nc(Cl)c(N(C)CC(C)C)nc2N)c1 [ID 296, 3-amino-6-chloro-5-(isobutyl(methyl)amino)-N-(5-methylpyridin-3-yl)pyrazine-2-carboxamide bis(2,2,2-trifluoroacetate)] | 100% | 76% | 52% | 18%
Cc1cc(F)ncc1NC(=O)c1nc(Cl)c(N(C)CC(C)C)nc1N [ID 297, 3-amino-6-chloro-N-(6-fluoro-4-methylpyridin-3-yl)-5-(isobutyl(methyl)amino)pyrazine-2-carboxamide bis(2,2,2-trifluoroacetate)] | 94% | 67% | 58% | 16%
COC(=O)c1cccc(NC(=O)c2nc(Cl)c(N(C)CC(C)C)nc2N)c1.O=C(O)C(F)(F)F [ID 343, methyl 3-(3-amino-6-chloro-5-(isobutyl(methyl)amino)pyrazine-2-carboxamido)benzoate 2,2,2-trifluoroacetate] | 98% | 93% | 65% | 38%
